Assay results: patent publication US9976141B2, “Compositions and methods for inhibiting gene expression of Hif2alpha” (Arrowhead Madison Inc., priority 2015, dated 2018)

System: human (tumor) Hif2α (EPAS1) mRNA
Experiment: Hif2α knockdown in orthotopic RCC tumor bearing mice, single injection of RNAi trigger-delivery polymer conjugate, RT-qPCR (Table 7)
Type: in vivo
Conditions: RNAi trigger 100 μg, polymer 064 250 μg; single tail vein injection; relative to isotonic glucose
Method in brief: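 Female athymic nude mice carried orthotopic A498-SEAP ccRCC kidney tumours, used 5–6 weeks after implantation. They received one tail-vein injection of RGD-targeted Hif2α RNAi trigger–polymer conjugate or isotonic glucose. Tumour Hif2α mRNA was measured by TaqMan RT-qPCR normalised to CycA (ΔΔCT) and expressed relative to glucose-treated mice.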

Substance	Relative Expression day 4 (Hif2α mRNA in kidney tumor)
AD01887 (antisense UCUAGCAACAAAACCUUAATT; sense UUAAGGUUUUGUUGCUAGAT; Hif2alpha RNAi agent antisense strand; modified_base 2,4,6,9,10,13,14,16,18 /mod_base = “2′-deoxy-2′-fluoro corresponding nucleoside”; modified_base 1,3,5,7,8,11,12,15,17,19 /mod_base = “2′-O-methyl corresponding nucleoside”; modified_base 2,3,21 /mod_base = “5′-phosphorothioate corresponding nucleotide”; Hif2alpha RNAi agent sense strand; modified_base 3,5,8,9,13,15,17 /mod_base = “2′-deoxy-2′-fluoro corresponding nucleoside”; modified_base 1,2,4,6,7,10,11,12,14,16,18,19 /mod_base = “2′-O-methyl corresponding nucleoside”; modified_base 20 /mod_base = “3′-3′-linked nucleotide”; modified_base)	0.329
AD01888 (antisense UCUAGCAACAAAACCUUAATT; sense UUAAGGUUUUGUUGCUAGAT; Hif2alpha RNAi agent antisense strand; modified_base 2,4,6,8,10,12,14,15,18 /mod_base = “2′-deoxy-2′-fluoro corresponding nucleoside”; modified_base 1,3,5,7,9,11,13,16,17,19 /mod_base = “2′-O-methyl corresponding nucleoside”; modified_base 2,3,21 /mod_base = “5′-phosphorothioate corresponding nucleotide”; Hif2alpha RNAi agent sense strand; modified_base 1,3,4,7,9,11,13,15,17,19 /mod_base = “2′-deoxy-2′-fluoro corresponding nucleoside”; modified_base 2,5,6,8,10,12,14,16,18 /mod_base = “2′-O-methyl corresponding nucleoside”; modified_base 20 /mod_base = “3′-3′-linked nucleotide”; modified_base)	0.209
AD01889 (antisense UCUAGCAACAAAACCUUAATT; sense UUAAGGUUUUGUUGCUAGAT; Hif2alpha RNAi agent antisense strand; modified_base 2,4,6,9,10,12,14,15,18 /mod_base = “2′-deoxy-2′-fluoro corresponding nucleoside”; modified_base 1,3,5,7,8,11,13,16,17,19 /mod_base = “2′-O-methyl corresponding nucleoside”; modified_base 2,3,21 /mod_base = “5′-phosphorothioate corresponding nucleotide”; Hif2alpha RNAi agent sense strand; modified_base 3,4,7,9,13,15,17 /mod_base = “2′-deoxy-2′-fluoro corresponding nucleoside”; modified_base 1,2,5,6,8,10,11,12,14,16,18,19 /mod_base = “2′-O-methyl corresponding nucleoside”; modified_base 20 /mod_base = “3′-3′-linked nucleotide”; modified_base)	0.282
AD01890 (antisense UGUAAAACAAUUGUGUACUTT; sense AGUACACAAUUGUUUUACAT; Hif2alpha RNAi agent antisense strand; modified_base 2,4,6,8,10,13,14,16,18 /mod_base = “2′-deoxy-2′-fluoro corresponding nucleoside”; modified_base 1,3,5,7,9,11,12,15,17,19 /mod_base = “2′-O-methyl corresponding nucleoside”; modified_base 2,3,21 /mod_base = “5′-phosphorothioate corresponding nucleotide”; Hif2alpha RNAi agent sense strand; modified_base 1,3,5,8,9,11,13,15,17,19 /mod_base = “2′-deoxy-2′-fluoro corresponding nucleoside”; modified_base 2,4,6,7,10,12,14,16,18 /mod_base = “2′-O-methyl corresponding nucleoside”; modified_base 20 /mod_base = “3′-3′-linked nucleotide”; modified_base)	0.256
AD01891 (antisense UGUAAAACAAUUGUGUACUTT; sense AGUACACAAUUGUUUUACAT; Hif2alpha RNAi agent antisense strand; modified_base 2,4,6,8,10,13,14,16,18 /mod_base = “2′-deoxy-2′-fluoro corresponding nucleoside”; modified_base 1,3,5,7,9,11,12,15,17,19 /mod_base = “2′-O-methyl corresponding nucleoside”; modified_base 2,3,21 /mod_base = “5′-phosphorothioate corresponding nucleotide”; Hif2alpha RNAi agent sense strand; modified_base 3,5,8,9,11,13,17 /mod_base = “2′-deoxy-2′-fluoro corresponding nucleoside”; modified_base 1,2,4,6,7,10,12,14,15,16,18,19 /mod_base = “2′-O-methyl corresponding nucleoside”; modified_base 20 /mod_base = “3′-3′-linked nucleotide”; modified_base)	0.189
AD01892 (antisense UGUAAAACAAUUGUGUACUTT; sense AGUACACAAUUGUUUUACAT; Hif2alpha RNAi agent antisense strand; modified_base 2,4,6,8,10,12,14,15,18 /mod_base = “2′-deoxy-2′-fluoro corresponding nucleoside”; modified_base 1,3,5,7,9,11,13,16,17,19 /mod_base = “2′-O-methyl corresponding nucleoside”; modified_base 2,3,21 /mod_base = “5′-phosphorothioate corresponding nucleotide”; Hif2alpha RNAi agent sense strand; modified_base 1,3,4,7,9,11,13,15,17,19 /mod_base = “2′-deoxy-2′-fluoro corresponding nucleoside”; modified_base 2,5,6,8,10,12,14,16,18 /mod_base = “2′-O-methyl corresponding nucleoside”; modified_base 20 /mod_base = “3′-3′-linked nucleotide”; modified_base)	0.146
AD01893 (antisense UGUAAAACAAUUGUGUACUTT; sense AGUACACAAUUGUUUUACAT; Hif2alpha RNAi agent antisense strand; modified_base 2,4,6,8,10,12,14,15,18 /mod_base = “2′-deoxy-2′-fluoro corresponding nucleoside”; modified_base 1,3,5,7,9,11,13,16,17,19 /mod_base = “2′-O-methyl corresponding nucleoside”; modified_base 2,3,21 /mod_base = “5′-phosphorothioate corresponding nucleotide”; Hif2alpha RNAi agent sense strand; modified_base 3,4,7,9,11,13,17 /mod_base = “2′-deoxy-2′-fluoro corresponding nucleoside”; modified_base 1,2,5,6,8,10,12,14,15,16,18,19 /mod_base = “2′-O-methyl corresponding nucleoside”; modified_base 20 /mod_base = “3′-3′-linked nucleotide”; modified_base)	0.115
